System: heart/body weight ratio of male Sprague Dawley rats
Test: Cardiotoxicity assay (heart-to-body weight ratio)
Assay type: in vivo, rat
Settings: 250 μg/kg subcutaneously once daily for 28 days, cardiac-sparing where C is less than 1.3
Text: The cardiotoxicity assay measures the potential of a test compound to adversely affect the cardiovascular system. As thyroid hormone (T3) damages the cardiovascular system, the heart enlarges. See, e.g., Gomberg-Maitland et al., “Thyroid hormone and Cardiovascular Disease”, American Heart Journal, Vol. 135(2), pp. 187-196 (1998); Klein and Ojamaa, “Thyroid Hormone and the Cardiovascular System”, Current Opinion in Endocrinology and Diabetes, Vol. 4, pp.341-346 (1997); and Klemperer et al., “Thyroid Hormone Therapy and Cardiovascular Disease”, Progress in Cardiovascular Diseases, Vol. 37 (4), pp. 329-336 (1996). This increases the weight of the heart relative to whole body weight. The cardiotoxicity assay herein below is used to test compounds for potentially adverse cardiac effects by measuring their effect on the heart-to-body weight ratio.
Two groups each of six male Sprague Dawley rats (Harlan Sprague Dawley, Inc., Indianapolis, Ind.) (each weighing from approximately 220 grams to 235 grams) are utilized. The first group is a vehicle control group and the second group is a test compound group. The length of the assay is 30 days, with treatment of vehicle or test compound in vehicle daily for 28 of those days as described below.
Prior to initiation of the assay, each rat is allowed to acclimate to standard environmental conditions for 5 days. […]

N[C@@H](Cc1cc(I)c(Oc2cc(I)c(O)c(I)c2)c(I)c1)C(=O)O [T4, thyroxine]
cardiac-sparing classification (index C = RT/RV, heart/body ratio of test compound group over vehicle control group): not cardiac-sparing

From US6680344B1, “Method of treating hair loss using diphenylmethane derivatives” (The University of Texas Southwestern Medical Center, priority 1999, dated 2004)
